# Measurements as given in patent publication US20210139484A1, “DIHYDROISOQUINOLINE-2(1H)-CARBOXAMIDE AND RELATED COMPOUNDS AND THEIR USE IN TREATING MEDICAL CONDITIONS” (GOSSAMER BIO SERVICES, INC., priority 2018, published 2021).
# Target: T1, human HPK1 protein (Homo sapiens, UniProt Q92918)
# T1 construct: recombinant human HPK1 protein (a.a. 1-346) was expressed in Sf9 insect cells; GST (N); purchased Signalchem M23-11G; host or cells: Sf9 insect cells (baculovirus)
# T1 sequence (Q92918 1-346): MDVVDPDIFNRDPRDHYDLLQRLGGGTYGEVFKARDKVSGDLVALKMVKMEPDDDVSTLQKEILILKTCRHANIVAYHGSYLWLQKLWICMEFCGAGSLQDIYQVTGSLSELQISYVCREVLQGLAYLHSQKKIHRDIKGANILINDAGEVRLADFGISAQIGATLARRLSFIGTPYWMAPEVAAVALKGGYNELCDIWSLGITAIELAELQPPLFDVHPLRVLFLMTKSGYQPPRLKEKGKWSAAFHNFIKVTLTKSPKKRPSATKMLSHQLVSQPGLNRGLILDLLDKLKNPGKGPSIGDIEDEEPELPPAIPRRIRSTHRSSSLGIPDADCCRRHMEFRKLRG
# Assay: Human HPK1 protein TR-FRET assay
# Assay type: biochemical
# Details: 1 mM ATP, Table 19
# Outline: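 Read-out was TR-FRET using Eu-labeled anti-phospho-CREB (Ser133) antibody, with the 665/615 nm signal ratio normalised to DMSO-only wells and fitted by a 4-parameter logistic model for IC50. Reactions held 10 nM Sf9-expressed GST-HPK1 (a.a. 1-346), 100 nM CREBtide and 1 mM ATP, run 60 minutes at room temperature, pH 7.5.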
row,IC50 [nM],SMILES
1,< 500,"CCN1CCN(Cc2ccc(NC(=O)N3CCc4ccc(Oc5ncnn6cccc56)cc4C3)cc2C(F)(F)F)CC1 [compound 1, N-[4-[(4-Ethylpiperazin-1-yl)methyl]-3-(trifluoromethyl)phenyl]-7-[pyrrolo[2,1-f][1,2,4]triazin-4-yloxy]-1,2,3,4-tetrahydroisoquinoline-2-carboxamide]"
2,< 500,"CCN1CCN(Cc2ccc(NC(=O)N3CCc4ccc(Oc5ccnc6[nH]ccc56)cc4C3)cc2C(F)(F)F)CC1 [compound 2, 7-((1H-Pyrrolo[2,3-b]pyridin-4-yl)oxy)-N-(4-((4-ethylpiperazin-1-yl)methyl)-3-(trifluoromethyl)phenyl)-3,4-dihydroisoquinoline-2(1H)-carboxamide]"
3,< 500,"CCN1CCN(Cc2ccc(NC(=O)N3CCc4cc(F)c(Oc5ccnc6[nH]ccc56)cc4C3)cc2C(F)(F)F)CC1 [compound 3, 7-((1H-Pyrrolo[2,3-b]pyridin-4-yl)oxy)-N-(4-((4-ethylpiperazin-1-yl)methyl)-3-(trifluoromethyl)phenyl)-6-fluoro-3,4-dihydroisoquinoline-2(1H)-carboxamide]"

# Continued, molecule first:
row,SMILES,IC50 [nM]
1,"CCN1CCN(Cc2ccc(NC(=O)N3Cc4cc(Oc5ccnc6[nH]ccc56)c(F)cc4C(C)C3)cc2C(F)(F)F)CC1 (centres unmarked) [compound 4, 7-((1H-pyrrolo[2,3-b]pyridin-4-yl)oxy)-N-(4-((4-ethylpiperazin-1-yl)methyl)-3-(trifluoromethyl)phenyl)-6-fluoro-4-methyl-3,4-dihydroisoquinoline-2(1H)-carboxamide]",< 500
2,"CCN1CCN(Cc2ccc(NC(=O)N3CCc4ccc(Oc5ccnc6[nH]ccc56)cc4[C@@H]3C)cc2C(F)(F)F)CC1 [compound 6, (S)-7-((1H-Pyrrolo[2,3-b]pyridin-4-yl)oxy)-N-(4-((4-ethylpiperazin-1-yl)methyl)-3-(trifluoromethyl)phenyl)-1-methyl-3,4-dihydroisoquinoline-2(1H)-carboxamide]",< 500
3,"C[C@H]1c2cc(Oc3ccnc4[nH]ccc34)ccc2CCN1C(=O)Nc1cnc(OC2CCN(C)CC2)c(C(F)(F)F)c1 [compound 7, (S)-7-((1H-pyrrolo[2,3-b]pyridin-4-yl)oxy)-1-methyl-N-(6-((1-methylpiperidin-4-yl)oxy)-5-(trifluoromethyl)pyridin-3-yl)-3,4-dihydroisoquinoline-2(1H)-carboxamide]",< 500
4,"CCN1CCN(Cc2ccc(NC(=O)N3CCc4ncc(Oc5ncnn6cccc56)cc4C3)cc2C(F)(F)F)CC1 [compound 8, N-[4-[(4-Ethylpiperazin-1-yl)methyl]-3-(trifluoromethyl)phenyl]-3-[pyrrolo[2,1-f][1,2,4]triazin-4-yloxy]-5,6,7,8-tetrahydro-1,6-naphthyridine-6-carboxamide]",< 500
5,"CCN1CCN(Cc2ccc(NC(=O)N3CCc4ncc(Oc5ccnc6[nH]ccc56)cc4C3C)cc2C(F)(F)F)CC1 (centres unmarked) [compound 9, 3-((1H-pyrrolo[2,3-b]pyridin-4-yl)oxy)-N-(4-((4-ethylpiperazin-1-yl)methyl)-3-(trifluoromethyl)phenyl)-5-methyl-7,8-dihydro-1,6-naphthyridine-6(5H)-carboxamide]",< 500
6,"CCN1CCN(Cc2ccc(NC(=O)N3Cc4cc(Oc5ccnc6[nH]ccc56)cnc4C(C)C3)cc2C(F)(F)F)CC1 (centres unmarked) [compound 10, 3-((1H-Pyrrolo[2,3-b]pyridin-4-yl)oxy)-N-(4-((4-ethylpiperazin-1-yl)methyl)-3-(trifluoromethyl)phenyl)-8-methyl-7,8-dihydro-1,6-naphthyridine-6(5H)-carboxamide]",< 500
7,"CCN1CCN(Cc2ccc(NC(=O)N3CCc4ccc(Nc5ncnn6cccc56)cc4C3)cc2C(F)(F)F)CC1 [compound 11, N-(4-((4-Ethylpiperazin-1-yl)methyl)-3-(trifluoromethyl)phenyl)-7-(pyrrolo[2,1-f][1,2,4]triazin-4-ylamino)-3,4-dihydroisoquinoline-2(1H)-carboxamide]",500 to 5000
8,"CCN1CCN(Cc2ccc(NC(=O)C3CCc4ccc(Oc5cc(NC)ncn5)cc4C3)cc2C(F)(F)F)CC1 (centres unmarked) [compound 12, N-(4-((4-ethylpiperazin-1-yl)methyl)-3-(trifluoromethyl)phenyl)-7-((6-(methylamino)pyrimidin-4-yl)oxy)-1,2,3,4-tetrahydronaphthalene-2-carboxamide]",500 to 5000
9,"CCN1CCN(Cc2ccc(NC(=O)C3CCc4ccc(Oc5ncnn6cccc56)cc4C3)cc2C(F)(F)F)CC1 (centres unmarked) [compound 13, N-(4-((4-ethylpiperazin-1-yl)methyl)-3-(trifluoromethyl)phenyl)-7-(pyrrolo[2,1-f][1,2,4]triazin-4-yloxy)-1,2,3,4-tetrahydronaphthalene-2-carboxamide]",< 500
10,"CCN1CCN(Cc2ccc(NC(=O)N3CC4CCC3c3cc(Oc5ccnc6[nH]ccc56)ccc34)cc2C(F)(F)F)CC1 (centres unmarked) [compound 14, 7-((1H-pyrrolo[2,3-b]pyridin-4-yl)oxy)-N-(4-((4-ethylpiperazin-1-yl)methyl)-3-(trifluoromethyl)phenyl)-1,2,3,4-tetrahydro-1,4-(epiminomethano)naphthalene-10-carboxamide]",500 to 5000
11,"CCN1CCN(Cc2ccc(NC(=O)C3CCc4ccc(Oc5ccnc6[nH]c(C)cc56)cc4N3)cc2C(F)(F)F)CC1 (centres unmarked) [compound 15, N-(4-((4-ethylpiperazin-1-yl)methyl)-3-(trifluoromethyl)phenyl)-7-((2-methyl-1H-pyrrolo[2,3-b]pyridin-4-yl)oxy)-1,2,3,4-tetrahydroquinoline-2-carboxamide]",< 500
12,"CCN1CCN(Cc2ccc(NC(=O)C3CCc4ccc(Oc5ccnc6[nH]c(C)cc56)cc4N3C)cc2C(F)(F)F)CC1 (centres unmarked) [compound 16, N-(4-((4-ethylpiperazin-1-yl)methyl)-3-(trifluoromethyl)phenyl)-1-methyl-7-((2-methyl-1H-pyrrolo[2,3-b]pyridin-4-yl)oxy)-1,2,3,4-tetrahydroquinoline-2-carboxamide]",< 500
13,"CCN1CCN(Cc2ccc(NC(=O)N3CC(=O)c4ccc(Oc5ccnc6[nH]c(C)cc56)cc4C3)cc2C(F)(F)F)CC1 [compound 17, N-(4-((4-ethylpiperazin-1-yl)methyl)-3-(trifluoromethyl)phenyl)-7-((2-methyl-1H-pyrrolo[2,3-b]pyridin-4-yl)oxy)-4-oxo-3,4-dihydroisoquinoline-2(1H)-carboxamide]",< 500

# Same assay, conditions: 1 mM ATP, Table 20
row,IC50 [nM],SMILES
1,< 500,CN1CCN(Cc2ncc(NC(=O)N3CCc4ccc(Nc5c(F)cnc6[nH]c(-c7cnn(C)c7)cc56)cc4C3)cc2C(F)(F)F)CC1 [XVII-2]
2,< 500,CN1CCN(Cc2ccc(NC(=O)N3CCc4cc(F)c(Nc5c(F)cnc6[nH]c(-c7cnn(C)c7)cc56)cc4C3)cc2C(F)(F)F)CC1 [XVII-3]
3,< 500,CN(C)C(=O)c1cc2c(Oc3ccc4c(c3)CN(C(=O)Nc3ccc(CN5CCNCC5)c(C(F)(F)F)c3)CC4)c(F)cnc2[nH]1 [XVIII-3]
4,< 500,CN1CCN(Cc2ccc(NC(=O)N3CCc4ccc(Oc5c(F)cnc6[nH]c(C(=O)N(C)C)cc56)cc4C3)cc2C(F)(F)F)CC1 [XVIII-4]
5,< 500,O=C(Nc1ccc(CN2CCNCC2)c(C(F)(F)F)c1)N1CCc2ccc(Oc3c(F)cnc4[nH]c(C5(O)CC5)cc34)cc2C1 [XVIII-5]
6,< 500,CN1CCN(Cc2ccc(NC(=O)N3CCc4ccc(Oc5c(F)cnc6[nH]c(C7(O)CC7)cc56)cc4C3)cc2C(F)(F)F)CC1 [XVIII-6]
7,< 500,O=C(Nc1ccc(CN2CCNCC2)c(C(F)(F)F)c1)N1CCc2ccc(Oc3ccnc4[nH]c(C5(O)CC5)cc34)cc2C1 [XVIII-9]
8,< 500,CN1CCN(Cc2ccc(NC(=O)N3CCc4ccc(Oc5ccnc6[nH]c(C7(O)CC7)cc56)cc4C3)cc2C(F)(F)F)CC1 [XVIII-10]
9,< 500,CN1CCN(Cc2ccc(NC(=O)N3Cc4cc(Oc5ccnc6[nH]c(C(=O)N(C)C)cc56)ccc4C(C(F)(F)F)C3)cc2C(F)(F)F)CC1 (centres unmarked) [XVIII-13]

# Second part, the molecule before the results:
row,SMILES,IC50 [nM]
1,CN1CCN(Cc2ncc(NC(=O)N3CCc4cc(F)c(Nc5c(F)cnc6[nH]c(-c7cnn(C)c7)cc56)cc4C3)cc2C(F)(F)F)CC1 [XVII-4],< 500
2,CCN1CCN(Cc2ccc(NC(=O)N3Cc4cc(Oc5ccnc6[nH]c(C)cc56)c(C)nc4C(C)C3)cc2C(F)(F)F)CC1 (centres unmarked) [XVIII-2],< 500
3,CCN1CCN(Cc2ccc(NC(=O)N3CCc4cnc(Nc5ccnc6[nH]ccc56)nc4C3)cc2C(F)(F)F)CC1 [XVIII-11],500 to 5000
4,CN1CCN(Cc2ccc(NC(=O)N3Cc4cc(Oc5ccnc6[nH]c(C7(O)CC7)cc56)ccc4C(C(F)(F)F)C3)cc2C(F)(F)F)CC1 (centres unmarked) [XVIII-12],< 500
5,CN1CCN(Cc2ccc(NC(=O)N3Cc4cc(Oc5ccnc6[nH]ccc56)ccc4C(C(F)(F)F)C3)cc2C(F)(F)F)CC1 (centres unmarked) [XVIII-14],< 500
6,CCN1CCN(Cc2ccc(NC(=O)N3Cc4cc(Oc5ccnc6[nH]ccc56)ccc4C(C(F)(F)F)C3)cc2C(F)(F)F)CC1 (centres unmarked) [XVIII-15],< 500
7,CC[C@H]1Cc2ncc(Oc3ccnc4[nH]ccc34)cc2CN1C(=O)Nc1ccc(CN2CCN(CC)CC2)c(C(F)(F)F)c1 [XVIII-16],< 500
8,CC[C@@H]1Cc2ncc(Oc3ccnc4[nH]ccc34)cc2CN1C(=O)Nc1ccc(CN2CCN(CC)CC2)c(C(F)(F)F)c1 [XVIII-17],< 500
9,CCN1CCN(Cc2ccc(NC(=O)N3Cc4cc(Oc5ccnc6[nH]ccc56)cnc4C[C@@H]3C)cc2C(F)(F)F)CC1 [XVIII-18],< 500
10,CCN1CCN(Cc2ccc(NC(=O)N3Cc4cc(Oc5ccnc6[nH]ccc56)cnc4C[C@H]3C)cc2C(F)(F)F)CC1 [XVIII-19],< 500
